pIC50: −log10 of the molar value.
Molecular target: HPK1 (Homo sapiens (Human), UniProt Q92918)
Assay: HPK1 biochemical enzyme assay (microfluidic mobility shift assay)
Settings: 1.5 nM HPK1, ATP 1 mM final, 30 min preincubation, 60 min at RT, Caliper EZ Reader; read-out: HPK1 1000UMATP caliper IC50
Method in brief: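 Mobility shift readout of HPK1 activity after a 60 min RT reaction with 1 mM ATP, 1 μM substrate and 5 mM MgCl2. Enzyme/substrate mix was first exposed to compounds for 30 min, using ten-point curves topping at 3 μM final.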

HPK1, sequence (Q92918 whole entry): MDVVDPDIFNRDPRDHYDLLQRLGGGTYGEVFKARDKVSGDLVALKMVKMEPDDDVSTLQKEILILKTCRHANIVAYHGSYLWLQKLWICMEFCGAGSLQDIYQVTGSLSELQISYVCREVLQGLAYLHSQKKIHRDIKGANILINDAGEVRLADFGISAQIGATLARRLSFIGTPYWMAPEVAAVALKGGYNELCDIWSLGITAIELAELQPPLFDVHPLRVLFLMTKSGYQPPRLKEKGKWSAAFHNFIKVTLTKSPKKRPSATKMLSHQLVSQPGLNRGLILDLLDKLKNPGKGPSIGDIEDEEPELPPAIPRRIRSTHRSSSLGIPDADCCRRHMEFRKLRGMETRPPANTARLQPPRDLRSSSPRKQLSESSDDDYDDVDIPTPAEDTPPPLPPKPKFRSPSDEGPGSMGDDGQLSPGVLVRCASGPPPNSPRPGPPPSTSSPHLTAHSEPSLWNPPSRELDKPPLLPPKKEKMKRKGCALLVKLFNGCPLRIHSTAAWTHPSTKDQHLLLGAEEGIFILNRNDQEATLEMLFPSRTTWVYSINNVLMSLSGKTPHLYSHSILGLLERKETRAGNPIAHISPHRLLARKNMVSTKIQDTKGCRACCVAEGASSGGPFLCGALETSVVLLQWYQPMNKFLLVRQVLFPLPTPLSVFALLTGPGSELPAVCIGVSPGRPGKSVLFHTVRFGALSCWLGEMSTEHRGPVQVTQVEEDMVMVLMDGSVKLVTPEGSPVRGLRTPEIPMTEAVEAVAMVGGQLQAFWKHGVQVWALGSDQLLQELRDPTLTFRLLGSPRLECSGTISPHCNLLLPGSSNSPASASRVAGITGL

Row | Compound | pIC50
1 | O=C1NCc2c(-c3ccnc4[nH]ccc34)ncc(Nc3ccc(N4CCC(O)CC4)cn3)c21 [I-193, 7-[[5-(4-hydroxy-1-piperidyl)-2-pyridyl]-amino]-4-(1H-pyrrolo[2,3-b]pyridin-4-yl)-2,3-dihydropyrrolo [3,4-c]pyridin-1-one] | > 7.00
2 | Cn1ccc2c(-c3ncc(Nc4cccc(N5CC[C@H](N6CCCC6)C5)n4)c4c3CNC4=O)ccnc21 [I-443, (S)-7-((6-([1,3-bipynolidin]-1′-yl)pyridin-2-yl)amino)-4-(1-methyl-1H-pyrrolo[2,3-b]pyridin-4-yl)-2,3-dihydro-1H-pyrrolo[3,4-c]pyridin-1-one] | > 7.00
3 | Cc1ccc2c(-c3ccc(Nc4ccc(N5CCNCC5)cn4)c4c3CNC4=O)cnn2c1 [I-89, 4-(6-methylpyrazolo[1,5-a]pyridin-3-yl)-7-[(5-piperazin-1-yl-2-pyridyl)amino] isoindolin-1-one] | > 7.00
4 | CN1CCN(c2ccc(Nc3ccc(-c4c[nH]c5ncccc45)c4c3C(=O)NC4)nc2)CC1 [I-21, 7-[[5-(4-methylpiperazin-1-yl)-2-pyridyl]amino]-4-(1H-pyrrolo[2,3-b]pyridin-3-yl)-isoindolin-1-one] | > 7.00
5 | CN1CCN(c2ccc(Nc3ccc(-c4ccnc5cc[nH]c45)c4c3C(=O)NC4)nc2)CC1 [I-81, 7-[[5-(4-methylpiperazin-1-yl)-2-pyridyl]amino]-4-(1H-pyrrolo[3,2-b]pyridin-7-yl)isoindolin-1-one] | > 7.00
6 | CN1CCC(O)(c2ccc(Nc3ccc(-c4ccnc5c4ccn5C)c4c3C(=O)NC4)nc2)CC1 [I-274, 7-((5-(4-hydroxy-1-methylpiperidin-4-yl)pyridin-2-yl)amino)-4-(1-methyl-1H-pyrrolo[2,3-b]pyridin-4-yl)isoindolin-1-one] | > 7.00
7 | Cn1ccc2c(-c3ccc(Nc4ccc(N5CCC(O)CC5)cn4)c4c3CNC4=O)cccc21 [I-161, 7-[[5-(4-hydroxy-1-piperidyl)-2-pyridyl]amino]-4-(1-methylindol-4-yl)isoindolin-1-one] | > 7.00
8 | Cc1cnc2[nH]cc(-c3ccc(Nc4ccc(N5CCN(C)CC5)cn4)c4c3CNC4=O)c2c1 [I-30, 7-[[5-(4-methylpiperazin-1-yl)-2-pyridyl]amino]-4-(5-methyl-1H-pyrrolo[2,3-b]pyridin-3-yl)-isoindolin-1-one] | 6.00 to 7.00
9 | CN1CC[C@]12CCN(c1cccc(Nc3cnc(-c4ccnc5c4ccn5C)c4c3C(=O)NC4)n1)C2 [I-615, (R)-7-((6-(1-methyl-1.6-diazaspiro[3,4]octan-6-yl)pyridin-2-yl)amino)-4-(1-methyl-1H-pyrrolo[2,3-b]pyridin-4-yl)-2,3-dihydro-1H-pyrrolo[3,4-c]pyridin-1-one] | 6.00 to 7.00
10 | CCNC(=O)C(C)(C)c1ccc(Nc2ccc(-c3ccnc4c3ccn4C)c3c2C(=O)NC3)nc1 [I-146, N-ethyl-2-methyl-2-[6-[[7-(1-methylpyrrolo [2,3-b]pyridin-4-yl)-3-oxo-isoindolin-4-yl]amino]-3-pyridyl]propan amide] | > 7.00
11 | Cn1ccc2c(-c3ccc(Nc4ccc(N5CCNCC5)cn4)c4c3CNC4=O)ncnc21 [I-123, 4-(7-methylpyrrolo [2,3-d]pyrimidin-4-yl)-7-[(5-piperazin-1-yl-2-pyridyl)amino] isoindolin-1-one] | > 7.00
12 | O=C1NCc2c(-c3cncn4ccnc34)ncc(Nc3ccc(N4CCC(O)CC4)cn3)c21 [I-632, 7-((5-(4-hydroxy-piperidin-1-yl)pyridin-2-yl)amino)-4-(imidazo[1,2-c]pyrimidin-8-yl)-2,3-dihydro-1H-pyrrolo[3,4-c]pyridin-1-one] | < 6.00
13 | Cc1cc(Nc2cnc(-c3ccnc4c3ccn4C)c3c2C(=O)NC3)nc(N2CC[C@@H]3CNC[C@@H]32)c1 [I-642, 7-((6-((3aR,6aR)-hcxahydropyrr-olo[3,4-b]pyrrol-1(2H)-yl)-4-methylpyridin-2-yl)amino)-4-(1-methyl-1H-pyrrolo[2,3-b]pyridin-4-yl)-2,3-dihydro-1H-pyrrolo[3,4-c]pyridin-1-one] | 6.00 to 7.00
14 | CN1CCN(c2ccc(Nc3cnc(-c4c[nH]c5nc(C(F)(F)F)ccc45)c4c3C(=O)NC4)nc2)CC1 [I-253, 7-((5-(4-methylpiperazin-1-yl)pyridin-2-yl)amino]-4-(6-(trifluorometh-yl)-1H-pyrrolo[2,3-b]pyridin-3-yl)-2,3-dihydro-1H-pyrrolo[3,4-c]pyridin-1-one] | < 6.00
15 | CN1CCN(c2ccc(Nc3ccc(-c4c(-c5ccccc5)[nH]c5ccccc45)c4c3C(=O)NC4)nc2)CC1 [I-40, 7-[[5-(4-methylpiperazin-1-yl)-2-pyridyl]amino]-4-(2-phenyl-1H-indol-3-yl)isoindolin-1-one] | > 7.00
16 | O=C1NCc2c(-c3cnc4cc(CN5CC(F)C5)ccn34)ccc(Nc3ccc(N4CCC(O)CC4)cn3)c21 [I-378, 4-(7-((3-fluoroazetidin-1-yl)methyl)imidazo[1,2-a]pyridin-3-yl)-7-((5-(4-hydroxy-piperidin-1-yl)pyridin-2-yl)amino)isoin-dolin-1-one] | 6.00 to 7.00
17 | CC(C)(O)[C@H]1CCCN(c2ccc(Nc3cnc(-c4cnc5ccccn45)c4c3C(=O)NC4)nc2)C1 [I-210, 7-[[5-[(3S)-3-(1-hydroxy-1-methyl-ethyl)-1-piperipyl]-2-pyridyl]-amino]-4-imidazo[1,2-a]pyridin-3-yl-2.3-dihydropyrrolo [3,4-c]pyridin-1-one] | > 7.00

Continued, values first:

Row | pIC50 | Compound
18 | > 7.00 | COCC1CN(c2ccc(Nc3ccc(-c4cnc5nc(C)ccn45)c4c3C(=O)NC4)nc2)CCO1 (stereo in doubt) [I-628, (R)-7-((5-(2-(methoxymeth-yl)morpho-lino)pyridin-2-yl)amino)-4-(7-methylimidazol',2-a]pyriinidin-3-yl)isoindolin-1-one]
19 | > 7.00 | C[C@H]1CN([C@@H](C)c2ccc(Nc3ccc(-c4cnc5cc(F)ccn45)c4c3C(=O)NC4)nc2)CCO1 [I-522, 4-(7-fluoroimidazo [1,2-a]pyridin-3-yl)-7-((5-((S)-1-((S)-2-methylmorpho-lino)ethyl)pyri-din-2-yl)amino) isoin-dolin-1-one]
20 | > 7.00 | Cc1ccn2c(-c3ccc(Nc4ccc(C(C)(C)C(=O)NCCN(C)C)cn4)c4c3CNC4=O)cnc2c1F [I-456, N-[2-(dimethylami-no)ethyl]-2-[6-[[7-(8-fluoro-7-methyl-imidazo[1,2-a]pyridin-3-yl)-3-oxo-isoindolin-4-yl]amino]-3-pyridyl]-2-methyl-propanamide]
21 | > 7.00 | Cc1ccc2c(-c3ccc(Nc4ccc(C5CCOC5)c(CN(C)C)n4)c4c3CNC4=O)cnn2c1 (stereo in doubt) [I-731, (S)-7-((6-((dimethylamino)-methyl)-5-(tetrahydrofuran-3-yl)pyridin-2-yl)amino)-4-(6-methylpyra-zolo[1,5-a]pyridin-3-yl)isoindolin-1-one]
22 | > 7.00 | CN1CCCC1C1(O)CCN(c2ccc(Nc3ccc(-c4cnc5cc(F)ccn45)c4c3C(=O)NC4)nc2)CC1 (stereo not shown) [I-677, 4-(7-fluoroimidazo [1,2-a]pyridin-3-yl)-7-((5-(4-hydroxy-4-(1-methylpyrrol-idin-2-yl)piperidin-1-yl)pyridin-2-yl)amino)isoin-dolin-1-one]
23 | > 7.00 | CN(C)Cc1nc(Nc2ccc(-c3cnc4cc(F)ccn34)c3c2C(=O)NC3)cnc1C1CCOC1 (stereo in doubt) [I-799, (S)-7-((6-((dimethylamino)-methyl)-5-(tetrahydrofu-ran-3-yl)pyrazin-2-yl)amino)-4-(7-fluoroimidazo [1,2-a]pyridin-3-yl)isoindolm-1-one]
24 | > 7.00 | CN(C)Cc1nc(Nc2ccc(-c3cnc4cc(F)ccn34)c3c2C(=O)NC3)ccc1OC1CCOCC1 [I-553, 7-[[6-[(dimethylamino)-methyl]-5-tetrahydropy-ran-4-yloxy-2-pyridyl]amino]-4-(7-fluoroimidazo [1,2-a]pyridin-3-yl)isoindolin-1-one]
25 | > 7.00 | C[C@@H](O)[C@@H]1CCCN(c2ccc(Nc3ccc(-c4cnc5cc(F)ccn45)c4c3C(=O)NC4)nc2)C1 (stereo in doubt) [I-357, 4-(7-fluoroimidazo [1,2-a]pyridin-3-yl)-7-((5-((S)-3-((S)-1-hydroxyethyl)piperidin-1-yl)pyridin-2-yl)amino)isoin-dolin-1-one]
26 | > 7.00 | CC1(O)CCN(c2ccc(Nc3ccc(-c4cnc5cnccn45)c4c3C(=O)NC4)nc2)CC1 [I-313, 7-((5-(4-hydroxy-4-methylpiperidin-1-yl)pyridin-2-yl)amino)-4-(imidazo[1,2-a]pyrazin-3-yl)isoindolin-1-one]
27 | > 7.00 | CN(C)Cc1nc(Nc2ccc(-c3cnc4cnccn34)c3c2C(=O)NC3)ccc1C1CCOCC1 [I-850, 7-[[6-[(dimethylami-no)methyl]-5-tetrahydropyran-4-yl-2-pyridyl]amino]-4-imidazo[1,2-a]pyrazin-3-yl-isoindolin-1-one]
28 | > 7.00 | CN(C)CC1CN(c2ccc(Nc3ccc(-c4cnc5cc(F)ccn45)c4c3C(=O)NC4)nc2)CCO1 (stereo not shown) [I-383, 7-((5-(2-((dimethylamino)-methyl)mor pholino)pyridin-2-yl)amino)-4-(7-fluoroimidazo [1,2-a]pyridin-3-yl)isoindolin-1-one]
29 | > 7.00 | CN(C)C[C@@H]1CN(c2ccc(Nc3ccc(-c4cnc5cc(Cl)ccn45)c4c3C(=O)NC4)nc2)CCO1 [I-593, (R)-4-(7-chloroimidazo [1,2-a]pyridin-3-yl)-7-((5-(2-((dimethylamino)-methyl)mor-pholino)pyridin-2-yl)amino)isoin-dolin-1-one]
30 | > 7.00 | CN(C)Cc1nc(Nc2ccc(-c3cnc4cc(F)ccn34)c3c2C(=O)NC3)ccc1C1(O)CCOCC1 [I-719, 7-((6-((dimethylamino)-methyl)-5-(4-hydroxytetra-hydro-2H-pyran-4-yl)pyridin-2-yl)amino)-4-(7-fluoroimidazo [1,2-a]pyridin-3-yl)isoindolin-1-one]
31 | > 7.00 | Cc1c(F)ccn2c(-c3ccc(Nc4ccc(N5CCC(O)CC5)cn4)c4c3CNC4=O)cnc12 [I-209, 4-(7-fluoro-8-methyl-imidazo[1,2-a]pyridin-3-yl)-7-[[5-(4-hydroxy-1-piperidyl)-2-pyridyl]amino] isoindolin-1-one]

From US11021481B2, “Substituted isoindolin-1-ones and 2,3-dihydro-1h-pyrrolo[3,4-c]pyridin-1-ones as HPK1 antagonists” (Nimbus Saturn, Inc., priority 2019, dated 2021)
